Test results: PubChem BioAssay AID330 (DTP/NCI, 2004)
“And” between values parts separate entries of the source, which are not always exact repeats. Identical values can stand only once. Inconclusive results and toxic doses are left out. Rule for the calls: active = survival T/C of 150% or more; inactive = T/C below 125% in these data.

Test system: P388 leukemia ip, CD2F1 mice, survival T/C
Assay: NCI In Vivo Anticancer Drug Screen. Data for tumor model P388 Leukemia (intraperitoneal) in CD2F1 (CDF1) mice
Settings: endpoint: median survival time, higher = longer survival
How it was run: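 Mice carrying the transplanted tumor received test compound or vehicle. Survival was recorded in each group, and the value is the treated-group measurement divided by that of the vehicle-treated control group.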

[1] = dose: 100.0 mg/kg/injection, schedule: Q01DX001 (ip), vehicle: Klucel (hydroxypropylcellulose) (HPC)
[2] = dose: 200.0 mg/kg/injection, schedule: Q01DX001 (ip), vehicle: Klucel (hydroxypropylcellulose) (HPC)
[3] = dose: 400.0 mg/kg/injection, schedule: Q01DX001 (ip), vehicle: Klucel (hydroxypropylcellulose) (HPC)
[4] = dose: 50.0 mg/kg/injection, schedule: Q01DX005 (ip), vehicle: saline with Tween-80
[5] = dose: 100.0 mg/kg/injection, schedule: Q01DX005 (ip), vehicle: saline with Tween-80
[6] = dose: 200.0 mg/kg/injection, schedule: Q01DX005 (ip), vehicle: saline with Tween-80
[7] = dose: 50.0 mg/kg/injection, schedule: Q01DX009 (ip), vehicle: saline with Tween-80
[8] = dose: 100.0 mg/kg/injection, schedule: Q01DX009 (ip), vehicle: saline with Tween-80
[9] = dose: 100.0 mg/kg/injection, schedule: Q04DX003 (ip), vehicle: saline with Tween-80
[10] = dose: 200.0 mg/kg/injection, schedule: Q01DX009 (ip), vehicle: saline with Tween-80
[11] = dose: 200.0 mg/kg/injection, schedule: Q04DX003 (ip), vehicle: saline with Tween-80
[12] = dose: 50.0 mg/kg/injection, schedule: Q01DX009 (ip), vehicle: saline
[13] = dose: 100.0 mg/kg/injection, schedule: Q01DX009 (ip), vehicle: saline
[14] = dose: 200.0 mg/kg/injection, schedule: Q01DX009 (ip), vehicle: saline
[15] = dose: 50.0 mg/kg/injection, schedule: Q01DX005 (ip), vehicle: saline
[16] = dose: 100.0 mg/kg/injection, schedule: Q04DX002 (ip), vehicle: Klucel (hydroxypropylcellulose) (HPC)
[17] = dose: 200.0 mg/kg/injection, schedule: Q04DX002 (ip), vehicle: Klucel (hydroxypropylcellulose) (HPC)
[18] = dose: 60.0 mg/kg/injection, schedule: Q01DX005 (ip), vehicle: saline with Tween-80
[19] = dose: 120.0 mg/kg/injection, schedule: Q01DX005 (ip), vehicle: saline with Tween-80
[20] = dose: 240.0 mg/kg/injection, schedule: Q01DX005 (ip), vehicle: saline with Tween-80
[21] = dose: 50.0 mg/kg/injection, schedule: Q01DX005 (ip), vehicle: Klucel (hydroxypropylcellulose) (HPC)
[22] = dose: 100.0 mg/kg/injection, schedule: Q01DX005 (ip), vehicle: Klucel (hydroxypropylcellulose) (HPC)
[23] = dose: 200.0 mg/kg/injection, schedule: Q01DX005 (ip), vehicle: Klucel (hydroxypropylcellulose) (HPC)

Measured: T/C

BrC1C(c2ccccc2)=NOC12CN=C(c1ccccc1)O2 (centres undefined)
inactive: [1] 101 % of control | [2] 99 % of control | [3] 96 % of control

CCOc1nc(N)nc(C)c1N=Nc1ccc(O)cc1
inactive: dose: 60.0 mg/kg/injection, schedule: Q01DX005 (ip), vehicle: saline 100 % of control | dose: 120.0 mg/kg/injection, schedule: Q01DX005 (ip), vehicle: saline 99 % of control | dose: 240.0 mg/kg/injection, schedule: Q01DX005 (ip), vehicle: saline 96 % of control

COC(=O)C1CCCN1C(=O)c1ccccc1 (centres undefined)
inactive: [4] 114 % of control | [5] 93 % of control | [6] 100 % of control

O=c1cccc2c3ccccc3ccn12
inactive: dose: 60.0 mg/kg/injection, schedule: Q01DX005 (ip), vehicle: Klucel (hydroxypropylcellulose) (HPC) 91 % of control | dose: 120.0 mg/kg/injection, schedule: Q01DX005 (ip), vehicle: Klucel (hydroxypropylcellulose) (HPC) 95 % of control

CCCCC(CC)CO.[Ti] (centres undefined)
inactive: [7] 90 % of control | dose: 50.0 mg/kg/injection, schedule: Q04DX003 (ip), vehicle: saline with Tween-80 100 % of control | [8] 109 % of control | [9] 100 % of control | [10] 100 % of control | [11] 100 % of control

CCOC(=S)SCC(=O)NC
inactive: [12] 98 % of control | [13] 107 % of control | [14] 104 % of control

O=C(O)CSCSCC(=O)O
inactive: dose: 100.0 mg/kg/injection, schedule: Q04DX003 (ip), vehicle: saline 100 % of control | dose: 200.0 mg/kg/injection, schedule: Q04DX003 (ip), vehicle: saline 104 % of control

CC1CCC[N+](C)([B-](F)(F)F)C1 (centres undefined)
inactive: [15] 100 % of control | dose: 100.0 mg/kg/injection, schedule: Q01DX005 (ip), vehicle: saline 100 % of control

CC1(C)C[C@H](O)[C@H]2O[C@@]2(C)C1
inactive: dose: 100.0 mg/kg/injection, schedule: Q04DX002 (ip), vehicle: saline 95 % of control | dose: 200.0 mg/kg/injection, schedule: Q04DX002 (ip), vehicle: saline 96 % of control | dose: 400.0 mg/kg/injection, schedule: Q04DX002 (ip), vehicle: saline 105 % of control

Cc1ccc(-c2cs/c(=N\N=C3/CSC(=O)N3Cc3ccccc3)n2-c2ccccc2)cc1
inactive: [16] 98 % of control | [17] 89 % of control

CCN(CC)CC(O)c1c(OC)ccc2ccccc12 (centres undefined)
inactive: dose: 12.5 mg/kg/injection, schedule: Q01DX005 (ip), vehicle: saline 96 % of control | dose: 25.0 mg/kg/injection, schedule: Q01DX005 (ip), vehicle: saline 96 % of control | [15] 104 % of control and 97 % of control

O=S1(=O)NC(=NC2CCCC2)c2ccccc21
inactive: [4] 111 % of control | [5] 102 % of control | [6] 101 % of control

CC(C)C(Nc1nncs1)Nc1nncs1
inactive: [18] 103 % of control | [19] 109 % of control | [20] 118 % of control

O=C(/C=C/c1ccc(Cl)cc1)/C=C/c1ccc(Cl)cc1
inactive: [7] 91 % of control | [8] 86 % of control | [10] 93 % of control

CCCN(CCC)CCC(=O)OCC
inactive: [9] 118 % of control | [11] 100 % of control | dose: 400.0 mg/kg/injection, schedule: Q04DX003 (ip), vehicle: saline with Tween-80 100 % of control

O=C(CC(=O)C(F)(F)F)c1cccs1.O=C(CC(=O)C(F)(F)F)c1cccs1.O=C(CC(=O)C(F)(F)F)c1cccs1.[Eu]
inactive: [12] 113 % of control | [13] 106 % of control | [14] 102 % of control

CCOC(=O)C1=CNN=CC12C(=O)C(C(=O)OCC)CC2C(=O)OCC (centres undefined)
inactive: dose: 100.0 mg/kg/injection, schedule: Q04DX002 (ip), vehicle: saline with Tween-80 96 % of control | dose: 200.0 mg/kg/injection, schedule: Q04DX002 (ip), vehicle: saline with Tween-80 93 % of control | dose: 400.0 mg/kg/injection, schedule: Q04DX002 (ip), vehicle: saline with Tween-80 92 % of control

CCC(c1ccc(C(C)=O)c(O)c1)C(CC)c1ccc(C(C)=O)c(O)c1 (centres undefined)
inactive: [18] 97 % of control | [19] 90 % of control | [20] 88 % of control

CCOC12NC(=O)N(C)C1(OCC)C(=O)N(C)C(=O)N2C (centres undefined)
inactive: [7] 91 % of control | [8] 92 % of control | [10] 88 % of control

O=C1c2cccc([N+](=O)[O-])c2C(=O)c2c1oc1ccc3ccccc3c21
inactive: [21] 104 % of control | [22] 102 % of control | [23] 96 % of control

COc1cc(/C=N/NC(=O)COc2ccccc2)ccc1O
inactive: [18] 100 % of control | [19] 103 % of control | [20] 98 % of control

COc1cc(-c2coc3cc(O)ccc3c2=O)c(O)c(OC)c1OC
inactive: [1] 101 % of control | [2] 101 % of control | [3] 102 % of control

NN1C(=O)/C(=C\c2ccccc2)SC1=S
inactive: [16] 107 % of control | [17] 111 % of control | dose: 400.0 mg/kg/injection, schedule: Q04DX002 (ip), vehicle: Klucel (hydroxypropylcellulose) (HPC) 98 % of control

COc1cccc2c1C(CCCC(=O)O)CCC2 (centres undefined)
inactive: [21] 101 % of control | [22] 104 % of control | [23] 104 % of control

C1CSCCSCCCSCCSCCCSCCSC1
inactive: [1] 97 % of control | [2] 105 % of control | [3] 97 % of control

COc1cccc2c1C(=O)c1c(O)c3c(c(O)c1C2=O)CC(O)(C(=O)COC(C)C)CC3O (centres undefined)
inactive: dose: 1.56 mg/kg/injection, schedule: Q01DX009 (ip), vehicle: other 100 % of control | dose: 3.13 mg/kg/injection, schedule: Q01DX009 (ip), vehicle: other 100 % of control | dose: 6.25 mg/kg/injection, schedule: Q01DX009 (ip), vehicle: other 100 % of control | dose: 12.5 mg/kg/injection, schedule: Q01DX009 (ip), vehicle: other 103 % of control | dose: 25.0 mg/kg/injection, schedule: Q01DX009 (ip), vehicle: other 103 % of control

COc1ccc(-c2cc3cc(CCCOC4OC(COC5OCC(O)C(O)C5O)C(O)C(O)C4O)cc(OC)c3o2)cc1OC (centres undefined)
inactive: dose: 18.75 mg/kg/injection, schedule: Q01DX005 (ip), vehicle: Klucel (hydroxypropylcellulose) (HPC) 96 % of control | dose: 37.5 mg/kg/injection, schedule: Q01DX005 (ip), vehicle: Klucel (hydroxypropylcellulose) (HPC) 88 % of control

O=S(=O)(Nc1ccccc1C(F)(F)F)c1ccc(F)cc1
inactive: [18] 99 % of control | [19] 100 % of control | [20] 95 % of control

CCC1COC(COCc2ccccc2)=N1 (centres undefined)
inactive: dose: 100.0 mg/kg/injection, schedule: Q01DX002 (ip), vehicle: saline 98 % of control | dose: 200.0 mg/kg/injection, schedule: Q01DX002 (ip), vehicle: saline 95 % of control | dose: 400.0 mg/kg/injection, schedule: Q01DX002 (ip), vehicle: saline 95 % of control

CCCCNC(=O)OCC1=C(COC(=O)NCCCC)C2OC1C(C(=O)OC)=C2C(=O)OC
inactive: dose: 3.13 mg/kg/injection, schedule: Q01DX009 (ip), vehicle: distilled water + Tween-80 109 % of control | dose: 6.25 mg/kg/injection, schedule: Q01DX009 (ip), vehicle: distilled water + Tween-80 101 % of control and 108 % of control and 113 % of control | dose: 50.0 mg/kg/injection, schedule: Q01DX009 (ip), vehicle: distilled water + Tween-80 104 % of control and 108 % of control | dose: 100.0 mg/kg/injection, schedule: Q01DX009 (ip), vehicle: distilled water + Tween-80 95 % of control

CC1(C)CSC(=S)N1
inactive: dose: 2.5 mg/kg/injection, schedule: Q01DX009 (ip), vehicle: saline sonified 109 % of control | dose: 5.0 mg/kg/injection, schedule: Q01DX009 (ip), vehicle: saline sonified 100 % of control | dose: 10.0 mg/kg/injection, schedule: Q01DX009 (ip), vehicle: saline sonified 100 % of control
